According to the supplement of paper PMC13207355:

Tests used:
Conditions in all cases: exposure time: 72 h
E34 [1] = patient-derived glioblastoma stem cells of proneural subtype; assay: phenotypic distance (Euclidean, principal components) from DMSO controls (arbitrary units); higher = stronger morphological change
E13 [2] = patient-derived glioblastoma stem cells of classical subtype; assay: as above
E31 [3] = patient-derived glioblastoma stem cells of proneural subtype; assay: as above
FT3469 [4] = normal neural stem cell line; assay: as above
E28 [5] = patient-derived glioblastoma stem cells of classical subtype; assay: as above
E57 [6] = patient-derived glioblastoma stem cells of mesenchymal subtype; assay: as above
E21 [7] = patient-derived glioblastoma stem cells of mesenchymal subtype; assay: as above
E34 [8] = assay: surviving fraction (nuclei count normalised to DMSO); higher = more cells surviving (less toxic)
E13 [9] = assay: as above
E31 [10] = assay: as above
FT3469 [11] = assay: as above
E28 [12] = assay: as above
E57 [13] = assay: as above
E21 [14] = assay: as above
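For phenotypic distance (Euclidean, principal components) from DMSO controls in this document: cell Painting imaging in 384-well plates, CellProfiler features reduced to at least 20 principal components, Euclidean distance versus same-plate DMSO vehicle wells (0.1% v/v), median over six images per well.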
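For surviving fraction (nuclei count normalised to DMSO) in this document: nuclei counted by high-content imaging of Hoechst-stained cells in laminin-coated 384-well plates, relative to 0.1% DMSO vehicle wells, with staurosporine as cell-death control.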

CN1C(=O)OC(C)(C)C1=O [Trimethadione]
Conditions | phenotypic distance | surviving fraction
E13 [2], 4.1 nM | 0.619 | –
E13 [2], 12.3 nM | 0.485 | –
E13 [2], 37 nM | 0.498 | –
E13 [2], 111.1 nM | 0.332 | –
E13 [2], 333.3 nM | 0.419 | –
E13 [2], 1000 nM | 0.395 | –
E13 [2], 3000 nM | 0.509 | –
E13 [9], 4.1 nM | – | 0.872
E13 [9], 12.3 nM | – | 1.05
E13 [9], 37 nM | – | 0.904
E13 [9], 111.1 nM | – | 0.943
E13 [9], 333.3 nM | – | 0.94
E13 [9], 1000 nM | – | 1.07
E13 [9], 3000 nM | – | 0.9
E21 [7], 4.1 nM | 0.779 | –
E21 [7], 12.3 nM | 0.495 | –
E21 [7], 37 nM | 0.506 | –
E21 [7], 111.1 nM | 0.324 | –
E21 [7], 333.3 nM | 0.36 | –
E21 [7], 1000 nM | 0.29 | –
E21 [7], 3000 nM | 0.461 | –
E21 [14], 4.1 nM | – | 0.949
E21 [14], 12.3 nM | – | 1.02
E21 [14], 37 nM | – | 0.937
E21 [14], 111.1 nM | – | 1.05
E21 [14], 333.3 nM | – | 1.01
E21 [14], 1000 nM | – | 0.949
E21 [14], 3000 nM | – | 1.03
E28 [5], 4.1 nM | 0.624 | –
E28 [5], 12.3 nM | 0.657 | –
E28 [5], 37 nM | 0.665 | –
E28 [5], 111.1 nM | 0.367 | –
E28 [5], 333.3 nM | 0.471 | –
E28 [5], 1000 nM | 0.385 | –
E28 [5], 3000 nM | 0.844 | –
E28 [12], 4.1 nM | – | 0.994
E28 [12], 12.3 nM | – | 1.14
E28 [12], 37 nM | – | 0.959
E28 [12], 111.1 nM | – | 1.03
E28 [12], 333.3 nM | – | 1
E28 [12], 1000 nM | – | 1
E28 [12], 3000 nM | – | 0.903
E31 [3], 4.1 nM | 0.578 | –
E31 [3], 12.3 nM | 0.705 | –
E31 [3], 37 nM | 0.678 | –
E31 [3], 111.1 nM | 0.582 | –
E31 [3], 333.3 nM | 0.402 | –
E31 [3], 1000 nM | 0.343 | –
E31 [3], 3000 nM | 0.599 | –
E31 [10], 4.1 nM | – | 0.999
E31 [10], 12.3 nM | – | 1.03
E31 [10], 37 nM | – | 0.936
E31 [10], 111.1 nM | – | 1.15
E31 [10], 333.3 nM | – | 1.04
E31 [10], 1000 nM | – | 1.01
E31 [10], 3000 nM | – | 0.759
E34 [1], 4.1 nM | 0.536 | –
E34 [1], 12.3 nM | 0.379 | –
E34 [1], 37 nM | 0.464 | –
E34 [1], 111.1 nM | 1.03 | –
E34 [1], 333.3 nM | 0.604 | –
E34 [1], 1000 nM | 0.565 | –
E34 [1], 3000 nM | 0.885 | –
E34 [8], 4.1 nM | – | 1.12
E34 [8], 12.3 nM | – | 1.04
E34 [8], 37 nM | – | 1.04
E34 [8], 111.1 nM | – | 0.867
E34 [8], 333.3 nM | – | 0.972
E34 [8], 1000 nM | – | 0.961
E34 [8], 3000 nM | – | 0.86
E57 [6], 4.1 nM | 0.62 | –
E57 [6], 12.3 nM | 0.587 | –
E57 [6], 37 nM | 0.572 | –
E57 [6], 111.1 nM | 0.439 | –
E57 [6], 333.3 nM | 0.455 | –
E57 [6], 1000 nM | 1.11 | –
E57 [6], 3000 nM | 0.844 | –
E57 [13], 4.1 nM | – | 1.11
E57 [13], 12.3 nM | – | 0.909
E57 [13], 37 nM | – | 1.04
E57 [13], 111.1 nM | – | 1.04
E57 [13], 333.3 nM | – | 1
E57 [13], 1000 nM | – | 0.96
E57 [13], 3000 nM | – | 0.885
FT3469 [4], 4.1 nM | 0.493 | –
FT3469 [4], 12.3 nM | 0.946 | –
FT3469 [4], 37 nM | 0.598 | –
FT3469 [4], 111.1 nM | 0.319 | –
FT3469 [4], 333.3 nM | 0.852 | –
FT3469 [4], 1000 nM | 0.673 | –
FT3469 [4], 3000 nM | 0.994 | –
FT3469 [11], 4.1 nM | – | 1.05
FT3469 [11], 12.3 nM | – | 0.973
FT3469 [11], 37 nM | – | 0.987
FT3469 [11], 111.1 nM | – | 1.03
FT3469 [11], 333.3 nM | – | 0.983
FT3469 [11], 1000 nM | – | 1.03
FT3469 [11], 3000 nM | – | 0.855

OC[C@H]1O[C@@H](Oc2ccc(O)cc2)[C@H](O)[C@@H](O)[C@@H]1O [Arbutin]
Conditions | phenotypic distance | surviving fraction
E13 [2], 4.1 nM | 0.566 | –
E13 [2], 12.3 nM | 0.859 | –
E13 [2], 37 nM | 0.511 | –
E13 [2], 111.1 nM | 0.508 | –
E13 [2], 333.3 nM | 0.829 | –
E13 [2], 1000 nM | 0.191 | –
E13 [2], 3000 nM | 0.813 | –
E13 [9], 4.1 nM | – | 1.01
E13 [9], 12.3 nM | – | 1.04
E13 [9], 37 nM | – | 0.905
E13 [9], 111.1 nM | – | 0.917
E13 [9], 333.3 nM | – | 0.929
E13 [9], 1000 nM | – | 1.04
E13 [9], 3000 nM | – | 0.991
E21 [7], 4.1 nM | 0.434 | –
E21 [7], 12.3 nM | 1.06 | –
E21 [7], 37 nM | 0.902 | –
E21 [7], 111.1 nM | 0.857 | –
E21 [7], 333.3 nM | 0.484 | –
E21 [7], 1000 nM | 0.568 | –
E21 [7], 3000 nM | 0.491 | –
E21 [14], 4.1 nM | – | 1.03
E21 [14], 12.3 nM | – | 0.989
E21 [14], 37 nM | – | 1.07
E21 [14], 111.1 nM | – | 0.916
E21 [14], 333.3 nM | – | 1.05
E21 [14], 1000 nM | – | 0.971
E21 [14], 3000 nM | – | 0.967
E28 [5], 4.1 nM | 0.41 | –
E28 [5], 12.3 nM | 0.873 | –
E28 [5], 37 nM | 0.666 | –
E28 [5], 111.1 nM | 1.1 | –
E28 [5], 333.3 nM | 0.543 | –
E28 [5], 1000 nM | 0.716 | –
E28 [5], 3000 nM | 0.531 | –
E28 [12], 4.1 nM | – | 1.1
E28 [12], 12.3 nM | – | 1.03
E28 [12], 37 nM | – | 1.07
E28 [12], 111.1 nM | – | 1.15
E28 [12], 333.3 nM | – | 1.07
E28 [12], 1000 nM | – | 1.07
E28 [12], 3000 nM | – | 0.905
E31 [3], 4.1 nM | 0.898 | –
E31 [3], 12.3 nM | 0.639 | –
E31 [3], 37 nM | 0.606 | –
E31 [3], 111.1 nM | 0.754 | –
E31 [3], 333.3 nM | 0.505 | –
E31 [3], 1000 nM | 0.754 | –
E31 [3], 3000 nM | 0.805 | –
E31 [10], 4.1 nM | – | 0.937
E31 [10], 12.3 nM | – | 0.846
E31 [10], 37 nM | – | 0.945
E31 [10], 111.1 nM | – | 0.889
E31 [10], 333.3 nM | – | 1.05
E31 [10], 1000 nM | – | 1.13
E31 [10], 3000 nM | – | 0.884
E34 [1], 4.1 nM | 0.689 | –
E34 [1], 12.3 nM | 0.94 | –
E34 [1], 37 nM | 0.434 | –
E34 [1], 111.1 nM | 0.454 | –
E34 [1], 333.3 nM | 0.675 | –
E34 [1], 1000 nM | 0.496 | –
E34 [1], 3000 nM | 1.12 | –
E34 [8], 4.1 nM | – | 0.904
E34 [8], 12.3 nM | – | 1.15
E34 [8], 37 nM | – | 1.05
E34 [8], 111.1 nM | – | 1.02
E34 [8], 333.3 nM | – | 1.08
E34 [8], 1000 nM | – | 1.02
E34 [8], 3000 nM | – | 0.848
E57 [6], 4.1 nM | 0.568 | –
E57 [6], 12.3 nM | 0.753 | –
E57 [6], 37 nM | 0.629 | –
E57 [6], 111.1 nM | 0.522 | –
E57 [6], 333.3 nM | 0.897 | –
E57 [6], 1000 nM | 0.4 | –
E57 [6], 3000 nM | 0.484 | –
E57 [13], 4.1 nM | – | 0.949
E57 [13], 12.3 nM | – | 0.993
E57 [13], 37 nM | – | 1.11
E57 [13], 111.1 nM | – | 0.918
E57 [13], 333.3 nM | – | 1.07
E57 [13], 1000 nM | – | 1
E57 [13], 3000 nM | – | 1
FT3469 [4], 4.1 nM | 0.247 | –
FT3469 [4], 12.3 nM | 0.982 | –
FT3469 [4], 37 nM | 0.795 | –
FT3469 [4], 111.1 nM | 1.03 | –
FT3469 [4], 333.3 nM | 0.636 | –
FT3469 [4], 1000 nM | 1.1 | –
FT3469 [4], 3000 nM | 0.991 | –
FT3469 [11], 4.1 nM | – | 1.08
FT3469 [11], 12.3 nM | – | 0.99
FT3469 [11], 37 nM | – | 1.28
FT3469 [11], 111.1 nM | – | 0.987
FT3469 [11], 333.3 nM | – | 1.18
FT3469 [11], 1000 nM | – | 1.16
FT3469 [11], 3000 nM | – | 0.993
